T1: adenosine deaminase (Bos taurus, UniProt P56658)
T1 construct: purchased Sigma lot no; 70H8145 (catalogue number not given)
T1 sequence (P56658 2-363 limits assumed): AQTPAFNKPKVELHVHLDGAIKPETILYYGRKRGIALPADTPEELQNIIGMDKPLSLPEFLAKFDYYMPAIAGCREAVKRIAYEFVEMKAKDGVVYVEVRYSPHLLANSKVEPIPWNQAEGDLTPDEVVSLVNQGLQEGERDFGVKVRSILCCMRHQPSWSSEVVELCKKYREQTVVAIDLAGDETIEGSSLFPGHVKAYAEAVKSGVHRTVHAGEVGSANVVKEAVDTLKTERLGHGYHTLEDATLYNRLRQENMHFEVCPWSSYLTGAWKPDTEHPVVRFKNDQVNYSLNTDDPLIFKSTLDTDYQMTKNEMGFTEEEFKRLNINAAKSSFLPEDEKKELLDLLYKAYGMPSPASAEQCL

B1: Comparative Example: Unencapsulated adenosine deaminase, approximately 110 μg/mL in 0.1% trifluoroacetic acid in water (pH 2.0) (protein, UniProt P56658 2-363, looked up)
Adenosine deaminase: T1 sequence (P56658 2-363 limits assumed)

What was measured:
[1] = Penicillin G degradation in acidic solution pH 2.0; format: physicochemical; details: pH 2.0, 2 hours, 37° C.
Excerpt: For example, particles of the present invention can protect penicillin G from degradation in acidic environments. When exposed to an acidic environment, such as a solution with pH less than about 5.0, penicillin G is rapidly degraded. […] Penicillin G may be encapsulated in particles of the present invention, such as those comprising triazine derivatives of formula I, and protected from degradation in acidic environment. For example, penicillin G encapsulated in crosslinked particles comprising 4-{[4-(4-carboxyanilino)-6-(3-methyl-1H-imidazol-3-ium-1-yl)-1,3,5-triazin-2-yl]amino}benzoate and a mixture of magnesium and aluminum cations may be exposed to an acidic solution with a pH of 2.0 for 2 hours at 37° C.

[2] = target: T1, adenosine deaminase; test: Adenosine deaminase activity (inosine by HPLC) after exposure to acid or water; format: biochemical; details: after 2 hours in 0.1% trifluoroacetic acid pH 2.0 at room temperature
Protocol: One portion of the beads was added to a vial containing 20 ml of a 0.1% trifluoroacetic acid in water (pH of 2.0) test solution. The beads were exposed to the acidic test solution at room temperature for two hours. The acidic test solution was then decanted and discarded. The beads were rinsed with 10 mL deionized water. The water was then decanted and discarded. Phosphate buffer (20 mL, pH of 7.0 with 0.15 M NaCl) was added to the vial with the remaining beads and the vial was agitated on a wrist action shaker for one hour to dissolve the beads. The resulting solution was filtered through a 0.22 μm poly(vinylidene fluoride) filter.
The inosine peak area was 733 units.
The other portion of the beads was added to a vial containing 20 mL of deionized water (pH approx. 7.5). The beads were exposed to the water solution for two hours. The water was then decanted and discarded. Phosphate buffer (20 mL, pH of 7.0 with 0.15 M NaCl) was added to the vial with the remaining beads and the vial was agitated on a wrist action shaker for one hour to dissolve the beads. […] Adenosine deaminase activity was determined as described above. […]
Adenosine deaminase was added to a 20 mL of 0.1% trifluoroacetic acid in water (pH of 2.0) solution to prepare an acidic test solution with a concentration of approximately 110 μg/mL adenosine deaminase. […] Adenosine deaminase activity was determined as described above. […]

| Molecule | Degradation of penicillin G in acidic solution [1] | Adenosine deaminase activity, inosine peak area [2] |
| --- | --- | --- |
| CC1(C)S[C@@H]2[C@H](NC(=O)Cc3ccccc3)C(=O)N2[C@H]1C(=O)O [Penicillin G] | almost completely degraded | – |
| B1 | – | 5 units |

Source: patent US20080063714A1, “Compositions for Encapsulation and Controlled Release” (priority 2003, published 2008)
